Assay results as given in paper PMC6609541, “Enterohepatic circulation of glucuronide metabolites of drugs in dog” (Pharmacology Research & Perspectives, 2019).
Where “and” joins values, the source holds several entries; their conditions need not be identical. Identical values can stand only once. Like-named read-outs stand apart in the source and are kept apart here.

How the values were obtained:
[1] = test system: cryopreserved human hepatocytes; test: Hepatocyte intrinsic clearance with and without ABT (human); type: in vitro ADME; details: for % of inhibition by ABT: human hepatocytes, inhibition of Clint by 1 mmol/L ABT (fm by P450); for Hepatic fm by UGT: human, in hepatocytes
Protocol: (§1) The intrinsic clearance was determined in cryopreserved dog and human hepatocytes essentially as described previously.4 The assay incubation contained 0.3 µmol/L compound and hepatocytes at a concentration of 10^6 cells/mL, with and without 30 minutes pre‐incubation of 1 mmol/L ABT. Intrinsic clearance measurement was initiated by the addition of compound and the incubation quenched at 0.6, 15, 30, 60 and 90 minutes for DPTQ, and at 0.6, 15, 30, 60, 120 and 240 minutes by addition of acetonitrile with 0.1% formic acid. Samples were centrifuged at 3500 g for 10 minutes and the supernatant was analyzed to quantify parent compound loss and the intrinsic clearance values (μL/min/10^6 cells) were calculated using following equation for incubations with and without ABT. CLint=-kdep×incubation volume/10^6cells
(§2) In which the depletion rate constant (k dep) is the slope determined using linear regression from the log transformed percentage remaining on the y‐axis vs time on the x‐axis (min^− ^1). The fraction of metabolism (fm) by P450 was determined by the measurement of the percentage of inhibition of Clint by ABT.

[2] = as above; type: in vitro ADME; details: cryopreserved human hepatocytes, human hepatocytes, 0.3 µmol/L compound
Protocol: as §1, §2

[3] = Plasma pharmacokinetics after single intravenous administration in bile duct cannulated (BDC) and intact beagle dogs; type: in vivo, beagle dog; details: for EHC / AUC(0-inf) / half-life / clearance / AUC / Vd: dog; for EHC: enterohepatic circulation; for AUC(0-inf) / half-life / clearance / AUC / Vd: male, beagle, plasma, iv; for clearance: plasma clearance; for AUC: mean ± SD n=4, read-out: AUC0‐48 hr
Protocol: Male beagle dogs were obtained from Charles River Laboratories Inc (Wilmington, MA). Pharmacokinetic (PK) studies in intact dogs were conducted at Covance (Greenfield, IN), while bile duct cannulation surgery and PK studies were conducted in these dogs at Covance (Madison, WI). Dogs (weight: 9‐12 kg), were acclimated prior to study initiation according to Standard Operating Procedures (Covance). All intravenous compound administration was by an intravenous catheter implanted in the cephalic vein. Access to food and water was allowed ad libitum. All animal procedures were approved by the Institutional Animal Care and Use Committee at Covance. Replacement bile was not administered during the study since collection of bile was scheduled for a period of 48 hours, replacement is typically administered for studies lasting more than 60 hours.
Canagliflozin and DPTQ, both at 0.5 mg/kg, were administered intravenously in 25 mmol/L phosphate buffer (pH 8) containing 10% dimethylacetamide (v/v), 15% ethanol (v/v) via a cephalic vein. Total volume administered was 1 mL/kg. Dogs were housed in stainless steel metabolic cages during the study. Serial blood samples were collected from the jugular vein at 0.08, 0.25, 0.5, 1, 2, 4, 8, 12, 24, 36 and 48‐hours post‐dose with collection tubes containing anticoagulant K3‐EDTA. Plasma was obtained by centrifugation at 1600g for 10 minutes. Cumulative urine samples were collected between 0‐12, 12‐24, 24‐36 and 36‐48 hours and feces were collected between 0‐24 and 24‐48 hours in both intact and BDC dogs. Bile samples were collected between 0‐12, 12‐24, 24‐36, 36‐48 hours in BDC dogs. The weights of all samples except blood and plasma were recorded. All the samples were stored at −70°C until analysis by liquid chromatography tandem‐mass spectrometry (LC‐MS/MS) was performed.
Noncompartmental pharmacokinetic parameters were calculated using Watson version 7.4 (Thermo Scientific, Waltham, MA). Statistical significance of differences for pharmacokinetic parameters between two groups was examined with Student's t test using Sigmaplot 12.5 (Systat Software Inc, San Jose, CA).
Canagliflozin and DPTQ in plasma, bile, urine and feces were quantified using LC‐MS/MS. All samples plasma, urine and bile) were mixed with an organic internal standard solution essentially described previously,15 to precipitate protein and centrifuged, and the resulting supernatants were analyzed using AB Sciex API 4000 quadrupole mass spectrometer (Applied Biosystems, Foster City, CA) equipped with a TurboIonSpray interface. The feces samples were homogenized in MeOH:H2O (1:1) and shaken vigorously to obtain slurry. The homogenates then went through the sample extraction along with other matrices. The blank plasma, urine, bile and feces was spiked with internal standard for calibration curve. The pumps were Shimadzu LC‐10AD units with a SCL‐10A controller (Kyoto, Japan), and a Z‐215 liquid handler (Gilson, Middleton, WI) was used as the autosampler. All compounds were chromatographically separated using a Betasil javelin C18 20 × 2.1‐mm 5‐μm HPLC column (Thermo Fisher Scientific, Waltham, MA). The mobile phase consisted of solvent A (1 mmol/L ammonium bicarbonate in water) and solvent B (1 mmol/L ammonium bicarbonate in methanol). Drugs and metabolites were detected in positive ion mode, using selected ion mode: canagliflozin 462.2 → 191.1 m/z, DPTQ 436.2 → 158.9 m/z, and DPTQ‐O‐glucuronide 612.2 → 418.1.

[4] = test system: cryopreserved dog hepatocytes; test: Hepatocyte metabolite profile with and without ABT (dog); type: in vitro ADME; details: 4 h, 2 μmol/L
Protocol: Cryopreserved dog and human hepatocytes were obtained from BioreclamationIVT (Baltimore, MD). […] A stock solution of canagliflozin and DTPQ was added to medium to give a final incubation concentration of 2 μmol/L. The incubations including the media and cells were quenched after 4 hours with an equal volume of acetonitrile containing 200 ng/mL niflumic acid as internal standard. Samples were centrifuged at 3500 g for 10 minutes and the supernatant was analyzed by liquid chromatography coupled to a diode array UV detection and mass spectrometry system consisting of the Acquity ultra‐performance liquid chromatography column, Synapt G2‐S mass spectrometer, and an ultra‐performance liquid chromatography photodiode array detector (Waters, Milford, MA). The chromatographic separation of metabolites was achieved on a Waters 1.7‐μm Acquity BEH C18 (100 × 2.1 mm) column maintained at 60°C. The mobile phase consisted of solvent A (0.2% formic acid in water for DPTQ and 10 mmol/L ammonium acetate in water for canagliflozin) and solvent B (100% acetonitrile). The samples were eluted, at a flow rate of 0.5 mL/min with a gradient for 5 minutes. The LC/MS full scan data were processed by Metabolynx (Waters, Milford, MA) to identify metabolites. Product ion spectra were acquired to confirm the metabolites. The mass spectrometer was operated in positive ion mode with an electrospray ionization source. The parameters for the chamber were: capillary 1.0 kV, sample cone 50 V, source temperature 120°C, desolvation 500°C, and collision energy 25 V. The peak areas for parent, metabolite and internal standard were integrated to allow for comparison between conditions.

[5] = with 1 mmol/L ABT, 30 minutes pre-incubation, 1 mmol/L ABT pre‐incubation 30 minutes, read-out: Clint with ABT
[6] = 10^6 cells/mL, read-out: Clint without ABT
[7] = 0.5 mg/kg, BDC dog, 0.5 mg/kg IV bolus
[8] = 0.5 mg/kg, BDC dog, 0.5 mg/kg IV bolus, read-out: V dss
[9] = 0.5 mg/kg, intact dog, 0.5 mg/kg IV bolus

Row | SMILES | % of inhibition by ABT [1] [%] | Hepatic fm by UGT [1] | hepatocyte CLint at 0.3 µmol/L [2, 5] [µL/min/1e6 cells] | hepatocyte CLint at 0.3 µmol/L [2, 6] [µL/min/1e6 cells] | EHC [3] | CL0‐48 h ([3]; intact dog, 0.5 mg/kg IV bolus, AUCinf not extrapolated, CL from AUC0‐48 hours, 0.5 mg/kg) | AUC(0-inf) [3, 7] [µM·h] | half-life [3, 7] [h] | clearance [3, 7] [mL/min/kg] | AUC [3, 7] [µM·h] | Vd [3, 8] [L/kg] | AUC [3, 9] [µM·h] | Vd ([3]; 0.5 mg/kg, intact dog, 0.5 mg/kg IV bolus, AUCinf not extrapolated, read-out: V dss 0‐48 hr) [L/kg] | Peak area (+ABT) [4] | Peak area (‐ABT) [4] | AUC(0-inf) [3, 9] [µM·h] | half-life [3, 9] [h] | clearance [3, 9] [mL/min/kg] | Vd ([3]; 0.5 mg/kg, intact dog, 0.5 mg/kg IV bolus, read-out: V dss) [L/kg]
1 | C[C@H]1c2cccc(CC(C)(C)O)c2C[C@H](CO)N1C(=O)Cc1c(Cl)cccc1Cl [DPTQ, 2‐(2,6‐dichlorophenyl)‐1‐((1S,3R)‐5‐(2‐hydroxy‐2‐methylpropyl)‐3‐(hydroxymethyl)‐1‐methyl‐3,4‐dihydroisoquinolin‐2(1H)‐yl)ethan‐1‐one] | 7.8 ± 9.6 | High (high 70%‐100% in hepatocytes) | 5.5 ± 2.2 | 5.8 ± 2 | Yes | 2.73 mL/min/kg and 2.73 ± 1.2 mL/min/kg | 5.89 ± 3.3 | 2.5 ± 2.3 | 4.43 ± 3.1 | 5.89 ± 3.3 | 0.33 ± 0.07 | 7.94 ± 2.5 | 1.48 ± 0.25 | 244 | 33 |  |  |  | 
2 | Cc1ccc([C@@H]2O[C@H](CO)[C@@H](O)[C@H](O)[C@H]2O)cc1Cc1ccc(-c2ccc(F)cc2)s1 [Canagliflozin] | 20.1 ± 5.1 | High (high 70%‐100% in hepatocytes) | 10.1 ± 1.4 | 12.7 ± 2 | No |  | 16.4 ± 5.9 | 10.9 ± 1.8 | 1.32 ± 0.5 | 15.7 ± 5.4 | 0.87 ± 0.28 | 20.7 ± 3.7 |  | 8448 | 7808 | 21.2 ± 3.9 | 8.05 ± 0.62 | 0.93 ± 0.18 | 0.72 ± 0.13
